Laboratory results taken from EP1761537B1, “PYRROLO[2,1-C][1,4]BENZODIAZEPINE-NAPTHALIMIDE […] THROUGH […] AND PROCESS FOR PREPARATION THEREOF” (Council of Scientific and Industrial Research, priority 2004, dated 2006).

Columns and labels:
[1] = system: CT-DNA; experiment: DNA Thermal Denaturation Studies; assay type: binding; conditions: 1:5 molar ratio [PBD]/[DNA], CT-DNA 100 µM, ligand 20 µM, 10 mM sodium phosphate + 1 mM EDTA, pH 7.00
Description: For CT-DNA alone at pH 7.00 ± 0.01, Tm = 69.8 °C ± 0.01 (mean value from 10 separate determinations), all ΔTm values are ± 0.1 - 0.2 °C. For a 1:5 molar ratio of [PBD]/[DNA], where CT-DNA concentration = 100 µM and ligand concentration = 20 µM in aqueous sodium phosphate buffer [10 mM sodium phosphate + 1 mM EDTA, pH 7.00 ± 0.01].

[2] = system: A-549; experiment: In vitro cytotoxicity against human cancer cell lines (sulforhodamine B); assay type: cell-based; conditions: A549, A-549 (lung), 48 hours, read-out: percentage growth inhibition; for inhibition at 100 µM: 10^-4 mol/L
Description: (§1) In vitro cytotoxicity against human cancer cell lines: The human cancer cell lines procured from National Cancer Institute, Frederick, U.S.A or National Center for Cell Science; Pune, India. were used in present study. Cells were grown in tissue culture flasks in complete growth medium (RPMI-1640 medium with 2 mM glutamine, 100 µg/ml streptomycin, pH 7.4, sterilized by filtration and supplemented with 10% fetal calf serum and 100 units/ml penicillin before use) at 37°C in an atmosphere of 5% CO2 and 90% relative humidity in a carbon dioxide incubator. The cells at subconfluent stage were harvested from the flask by treatment with trypsin (0.5% in PBS containing 0.02% EDTA) for determination of cytotoxicity. Cells with viability of more than 98% as determined by trypan blue exclusion were used for assay. The cell suspension of the required cell density were prepared in complete growth medium with gentamycin (50µg/ml) for determination of cytotoxicity.
(§2) A stock solutions of (2 X 10^-2 M) of test material were prepared in DMSO . The stock solutions were serially diluted with complete growth medium containing 50µg/ml of gentamycin to obtain working test solutions of required concentrations.
(§3) In vitro cytotoxicity against human cancer cell lines was determined (Monks, A., Scudiero, D., Skehan, P, Shoemaker R, Paull, K., Vistica, D., Hose, C., Langley, J., Cronise, P., Vaigro-Wolff, A., Gray-Goodrich, M.; Campbell,H., Mayo, J and Boyd M. J. Natl. Cancer Inst.,1991,83, 757-766) using 96-well tissue culture plates. The 100 µl of cell suspension was added to each well of the 96-well tissue culture plate. The cells were incubated for 24 hours. Test materials in complete growth medium (100µl) were added after 24 hours incubation to the wells containing cell suspension. The plates were further incubated for 48 hours (at 37°C in an atmosphere of 5% and 90% relative humidity in a carbon dioxide incubator) after addition of test material and then the cell growth was stopped by gently layering trichloroacetic acid (TCA, 50µl, 50%) on top of the medium in all the wells. The plates were incubated at 4°C for one hour to fix the cells attached to the bottom of the wells. The liquid of all the wells was gently pipetted out and discarded. The plates were washed five times with distilled water to remove TCA, growth medium low molecular weight metabolites, serum proteins etc and air-dried. Cell growth was measured by staining with sulforhodamine B dye (Skehan et al., 1990). The adsorbed dye was dissolved in Tris-Buffer ([…], 0.01M, pH 10.4) and plates were gently stirred for 5 minutes on a mechanical stirrer. The optical density was recorded on ELISA reader at 540 nm.
(§4) The cell growth was calculated by subtracting mean OD value of respective blank from the mean OD value of experimental set. Percent growth in presence of test material was calculated considering the growth in absence of any test material as 100% and in turn percent growth inhibition in presence of test material will be calculated.

[3] = system: HCT-15; experiment: as above; assay type: cell-based; conditions: HCT-15 (colon), 48 hours, read-out: percentage growth inhibition; for inhibition at 10 µM: 10^-5 mol/L; for inhibition at 1 µM: 10^-6 mol/L
Description: as §1, §2, §3, §4

[4] = system: HOP-62; experiment: as above; assay type: cell-based; conditions: HOP-62 (lung), 48 hours, read-out: percentage growth inhibition; for inhibition at 10 µM: 10^-5 mol/L; for inhibition at 1 µM: 10^-6 mol/L
Description: as §1, §2, §3, §4

[5] = system: HT-29; experiment: as above; assay type: cell-based; conditions: HT-29 (colon), 48 hours, read-out: percentage growth inhibition; for inhibition at 100 µM: 10^-4 mol/L; for inhibition at 10 µM: 10^-5 mol/L; for inhibition at 1 µM: 10^-6 mol/L
Description: as §1, §2, §3, §4

[6] = system: SiHa; experiment: as above; assay type: cell-based; conditions: SiHa (cervix), 48 hours, read-out: percentage growth inhibition; for inhibition at 10 µM: 10^-5 mol/L; for inhibition at 1 µM: 10^-6 mol/L; for inhibition at 100 µM: 10^-4 mol/L
Description: as §1, §2, §3, §4

| Structure (SMILES) | Induced […]Tm °C after incubation at 37 °C ([1]; 0 h incubation at 37 °C) | Induced […]Tm °C after incubation at 37 °C ([1]; 18 h incubation at 37 °C) | inhibition at 100 µM [2] | inhibition at 10 µM [3] | inhibition at 1 µM [3] | inhibition at 10 µM [4] | inhibition at 1 µM [4] | inhibition at 100 µM [5] | inhibition at 10 µM [5] | inhibition at 1 µM [5] | inhibition at 10 µM [6] | inhibition at 1 µM [6] | inhibition at 100 µM [6] | inhibition at 10 µM ([2]; 10^-5 mol/L) | inhibition at 1 µM ([2]; 10^-6 mol/L) | inhibition at 100 µM ([4]; 10^-4 mol/L) |
| --- | --- | --- | --- | --- | --- | --- | --- | --- | --- | --- | --- | --- | --- | --- | --- | --- |
| COc1cc2c(cc1O)N=CC1CCCN1C2=O (centres unmarked) [DC-81, reference compound] | 0.3 °C | 0.7 °C |  |  |  |  |  |  |  |  |  |  |  |  |  |  |
| COc1cc2c(cc1OCCN1CCN(CCN3C(=O)c4cccc5cccc(c45)C3=O)CC1)N=C[C@@H]1CCCN1C2=O [VIIIa, 7-Methoxy-8-{2-[4-[2-(1,3-dioxo-benz[de]isoquinolin-2-yl)ethyl]piperazin-1=yl]ethyl}-oxy-(11aS)-1,2,3,11a tetrahydro-5H-pyrrolo [2,1-c][1,4]benzodiazepin-5-one] | 21.9 °C | 22.7 °C |  |  |  |  |  |  |  |  |  |  |  |  |  |  |
| COc1cc2c(cc1OCCCN1CCN(CCN3C(=O)c4cccc5cccc(c45)C3=O)CC1)N=C[C@@H]1CCCN1C2=O [VIIIb, 7-Methoxy-8-{3-[4-[2-(1,3-dioxo-benz[de]isoquinolin-2-yl)ethyl]piperazin-1-yl]propyl}-oxy-(11aS)-1,2,3,11a tetrahydro-5H-pyrrolo [2,1-c][1,4]benzodiazepin-5-one] | 25.8 °C | 26.7 °C | 88% | 59% | 58% | 86% | 72% | 88% | 85% | 91% | 44% | 54% |  |  |  |  |
| COc1cc2c(cc1OCCCCN1CCN(CCN3C(=O)c4cccc5cccc(c45)C3=O)CC1)N=C[C@@H]1CCCN1C2=O [VIIIc, 7-Methoxy-8-{4-[4-[2-(1,3-dioxo-benz[de]isoquinolin-2-yl)ethyl]piperazin-1-yl]butyl}-oxy-(11aS)-1,2,3,11a tetrahydro-5H-pyrrolo [2,1-c][1,4]benzodiazepin-5-one] | 23.4 °C | 24.2 °C | 95% | 69% | 60% | 93% | 86% | 94% | 86% | 80% | 39% |  | 56% |  |  |  |
| COc1cc2c(cc1OCCCN1CCN(CCCN3C(=O)c4cccc5cccc(c45)C3=O)CC1)N=C[C@@H]1CCCN1C2=O [VIIId, 7-Methoxy-8-{3-[4-[3-(1,3-dioxo-benz[de]isoquinolin-2-yl)propyl]piperazin-1-yl]propyl}-oxy-(11aS)-1,2,3,11a tetrahydro-5H-pyrrolo [2,1-c][1,4]benzodiazepin-5-one] | 13.1 °C | 14.3 °C | 95% |  |  |  |  | 95% | 62% | 63% | 65% | 31% | 85% | 30% | 51% | 78% |
| COc1cc2c(cc1OCCCCN1CCN(CCCCN3C(=O)c4cccc5cccc(c45)C3=O)CC1)N=C[C@@H]1CCCN1C2=O [VIIIe, 7-Methoxy-8-{4-[4-[4-(1,3-dioxo-benz[de]isoquinolin-2-yl)butyl]piperazin-1-yl]butyl}-oxy-(11aS)-1,2,3,11a tetrahydro-5H-pyrrolo [2,1-c][1,4]benzodiazepin-5-one] | 20.9 °C | 21.7 °C | 93% | 62% | 59% | 93% | 80% | 92% | 78% | 67% | 40% | 44% | 42% |  |  |  |
